# Literature values, collected in patent EP3568126B1, “[…] COMPOSITION” (Torrent Pharmaceuticals Limited, priority 2017, dated 2018).
substance,measurement,setting,value
"3-[(1R,2R)-3-(dimethylamino)-1-ethyl-2-methylpropyl]phenol [tapentadol]",time of maximum serum concentration,after oral dosing,around 1.25 hours
same,administered tapentadol metabolized (first-pass metabolism),oral administration,about 97%
same,bioavailability,oral administration,32%
same,time after administration at which absorption occurs,oral formulations,at least 45 minutes
